The source of these data is patent US12581252B2, “Substituted pyrrolo[3,4-b]pyridines as PI3K-α inhibitors” (Relay Therapeutics, Inc., priority 2020, dated 2026).

H1047R PIK3CA enzyme, sequence (P42336 whole entry H1047R): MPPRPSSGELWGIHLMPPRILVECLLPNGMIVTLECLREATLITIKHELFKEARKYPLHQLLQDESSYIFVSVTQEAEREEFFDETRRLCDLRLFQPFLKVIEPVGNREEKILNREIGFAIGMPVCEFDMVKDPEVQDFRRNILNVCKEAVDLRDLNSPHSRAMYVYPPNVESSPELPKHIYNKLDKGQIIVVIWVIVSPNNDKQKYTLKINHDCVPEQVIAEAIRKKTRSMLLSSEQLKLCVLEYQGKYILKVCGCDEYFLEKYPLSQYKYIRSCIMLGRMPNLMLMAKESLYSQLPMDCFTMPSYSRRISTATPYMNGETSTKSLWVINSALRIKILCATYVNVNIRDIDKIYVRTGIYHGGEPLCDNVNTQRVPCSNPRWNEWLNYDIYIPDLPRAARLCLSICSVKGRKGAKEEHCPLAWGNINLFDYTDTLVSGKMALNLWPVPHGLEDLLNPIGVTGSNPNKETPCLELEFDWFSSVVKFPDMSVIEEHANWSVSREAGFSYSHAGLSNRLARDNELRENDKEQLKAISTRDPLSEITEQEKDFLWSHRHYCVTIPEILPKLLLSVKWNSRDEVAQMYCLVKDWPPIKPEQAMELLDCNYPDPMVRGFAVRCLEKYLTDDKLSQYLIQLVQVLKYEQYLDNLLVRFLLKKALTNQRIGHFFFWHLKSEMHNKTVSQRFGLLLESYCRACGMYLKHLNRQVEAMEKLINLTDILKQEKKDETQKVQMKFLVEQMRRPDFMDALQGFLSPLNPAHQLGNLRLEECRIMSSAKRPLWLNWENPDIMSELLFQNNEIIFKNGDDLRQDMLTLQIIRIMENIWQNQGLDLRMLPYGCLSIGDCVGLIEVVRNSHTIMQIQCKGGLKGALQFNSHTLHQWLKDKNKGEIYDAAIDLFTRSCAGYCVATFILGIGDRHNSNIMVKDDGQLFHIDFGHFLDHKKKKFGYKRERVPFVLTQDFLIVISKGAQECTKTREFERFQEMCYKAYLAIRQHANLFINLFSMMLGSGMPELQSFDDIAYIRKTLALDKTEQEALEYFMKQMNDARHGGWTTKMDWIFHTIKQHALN
H1047R PIK3CA enzyme, sequence (P27986 whole entry partner): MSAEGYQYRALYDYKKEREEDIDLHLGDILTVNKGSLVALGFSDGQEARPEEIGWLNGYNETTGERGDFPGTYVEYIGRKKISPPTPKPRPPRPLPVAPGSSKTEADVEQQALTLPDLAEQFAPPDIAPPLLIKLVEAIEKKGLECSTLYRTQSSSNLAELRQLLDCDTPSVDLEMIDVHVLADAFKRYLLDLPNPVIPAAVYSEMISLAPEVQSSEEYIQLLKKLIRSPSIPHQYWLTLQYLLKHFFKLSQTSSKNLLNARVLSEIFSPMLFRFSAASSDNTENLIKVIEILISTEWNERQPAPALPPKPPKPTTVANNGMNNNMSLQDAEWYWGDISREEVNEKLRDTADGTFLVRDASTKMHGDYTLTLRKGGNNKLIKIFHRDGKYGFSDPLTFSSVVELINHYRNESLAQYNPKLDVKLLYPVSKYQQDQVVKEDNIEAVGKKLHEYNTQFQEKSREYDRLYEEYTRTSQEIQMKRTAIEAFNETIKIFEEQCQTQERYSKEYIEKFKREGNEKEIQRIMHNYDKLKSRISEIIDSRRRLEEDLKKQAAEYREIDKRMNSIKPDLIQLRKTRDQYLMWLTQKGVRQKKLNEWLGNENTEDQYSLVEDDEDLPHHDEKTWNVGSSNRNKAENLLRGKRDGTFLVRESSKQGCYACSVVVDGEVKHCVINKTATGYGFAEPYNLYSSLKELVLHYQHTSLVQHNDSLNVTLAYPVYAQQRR

The target of the assay is H1047R PIK3CA enzyme (Homo sapiens, UniProt P42336, H1047R). The assay is described as follows: ADP-Glo Biochemical PIK3CA Kinase Assay. Here is the method:
Compounds to be assayed were plated in 16 doses of 1:2 serial dilutions (20 nL volume each well) on a 1536-well plate, and the plate warmed to room temperature. […] To the well was added 1 μL of 200 μM ATP and 20 μM of diC8-PIP2 in Substrate Assay Buffer (50 mM HEPES pH7.4, 50 mM NaCl, 5 mM DTT and 0.03% CHAPS) to start the reaction, and the plate was shaken for 10 seconds, then spun briefly at 1500 rpm, and then incubated for 60 minutes at room temperature. The reaction was stopped by adding 2 μL of ADP-Glo reagent (Promega), and spinning briefly at 1500 rpm, and then incubating for 40 minutes. ADP-Glo Detection reagent (Promega) was added and the plate spun briefly at 1500 rpm, then incubated for 30 minutes.
On the technique in general: In ADP-Glo the light output rises with the ADP produced.
Molecule `O=C1NC[C@H](c2cc(NC(=O)c3cc(F)cc(C(F)(F)F)c3)c3c(c2)C(=O)N[C@@H]3c2cc(F)ccc2Cl)O1` (single isomer, unassigned) [Compound I-1558] registered an IC50 of 0.1 to 0.5 µM.

`O=C1NC[C@H](c2cc(NC(=O)c3cc(F)cc(C(F)(F)F)c3)c3c(c2)C(=O)N[C@H]3c2cc(F)ccc2Cl)O1` (single isomer, unassigned) [Compound I-1559] returned an IC50 of no more than 0.1 µM.

Take `O=C1NC[C@@H](c2cc(NC(=O)c3cc(F)cc(C(F)(F)F)c3)c3c(c2)C(=O)N[C@@H]3c2cc(F)ccc2Cl)O1` (single isomer, unassigned) [Compound I-1560]: the half-inhibitory concentration (IC50) fell in the range of 0.5 to 1 µM.

`C[S@](=O)(Cc1cc(NC(=O)c2cc(F)cc(C(F)(F)F)c2)c2c(c1)C(=O)N[C@@H]2c1cc(F)ccc1Cl)=NC#N` (single isomer, unassigned) [Compound I-1561] showed an IC50 of 0.1 to 0.5 µM.

On to `O=C1NC[C@@H](c2cc(NC(=O)c3cc(F)cc(C(F)(F)F)c3)c3c(c2)C(=O)N[C@H]3c2cc(F)ccc2Cl)O1` (single isomer, unassigned) [Compound I-1562], for which the IC50 was no more than 0.1 µM.

For `C[S@](=O)(Cc1cc(NC(=O)c2cc(F)cc(C(F)(F)F)c2)c2c(c1)C(=O)N[C@@H]2c1cc(F)ccc1Cl)=NC#N` (single isomer, unassigned) [Compound I-1563], the IC50 was no more than 0.1 µM.

Molecule `C[S@](=O)(Cc1cc(NC(=O)c2cc(F)cc(C(F)(F)F)c2)c2c(c1)C(=O)N[C@H]2c1cc(F)ccc1Cl)=NC#N` (single isomer, unassigned) [Compound I-1564] came in with an IC50 of no more than 0.1 µM.

Turning to `C[S@@](=O)(Cc1cc(NC(=O)c2cc(F)cc(C(F)(F)F)c2)c2c(c1)C(=O)N[C@H]2c1cc(F)ccc1Cl)=NC#N` (single isomer, unassigned) [Compound I-1565], the IC50 is no more than 0.1 µM.

Take `CN1C(=O)CC[C@@H]1COc1cc(NC(=O)c2cc(F)cc(C(F)(F)F)c2)c2c(c1)C(=O)N[C@H]2c1cc(F)ccc1Cl` (single isomer, unassigned) [Compound I-1567]: the IC50 is no more than 0.1 µM.

`CN1C(=O)CC[C@H]1COc1cc(NC(=O)c2cc(F)cc(C(F)(F)F)c2)c2c(c1)C(=O)N[C@@H]2c1cc(F)ccc1Cl` (single isomer, unassigned) [Compound I-1568] registered a 50% inhibitory concentration (IC50) of 1 to 10 µM.

`CN1C(=O)CC[C@@H]1COc1cc(NC(=O)c2cc(F)cc(C(F)(F)F)c2)c2c(c1)C(=O)N[C@@H]2c1cc(F)ccc1Cl` (single isomer, unassigned) [Compound I-1569] displayed an IC50 of 10 to 100 µM.

For `O=C1N[C@@H](c2cc(F)ccc2Cl)c2c(NC(=O)N3C[C@H](O)c4ccccc43)cc(-c3ccc4ncnn4c3)cc21` (single isomer, unassigned) [Compound I-1576], the IC50 fell in the range of 0.1 to 0.5 µM.

`O=C1N[C@@H](c2cc(F)ccc2Cl)c2c(NC(=O)N3C[C@@H](O)c4ccccc43)cc(-c3ccc4ncnn4c3)cc21` (single isomer, unassigned) [Compound I-1577] yielded an IC50 of no more than 0.1 µM.

Regarding `O=C1N[C@H](c2cc(F)ccc2Cl)c2c(NC(=O)N3C[C@H](O)c4ccccc43)cc(-c3ccc4ncnn4c3)cc21` (single isomer, unassigned) [Compound I-1578], the IC50 was 10 to 100 µM.

`O=C1N[C@H](c2cc(F)ccc2Cl)c2c(NC(=O)N3C[C@@H](O)c4ccccc43)cc(-c3ccc4ncnn4c3)cc21` (single isomer, unassigned) [Compound I-1579] registered an IC50 of 0.5 to 1 µM.

Molecule `[2H][C@]1(c2cc(F)ccc2Cl)NC(=O)c2cc(-c3ccc4ncnn4c3)cc(NC(=O)c3cc(F)cc(C(F)(F)F)c3)c21` (single isomer, unassigned) [Compound I-1600] registered an IC50 of no more than 0.1 µM.

`[2H][C@@]1(c2cc(F)ccc2Cl)NC(=O)c2cc(-c3ccc4ncnn4c3)cc(NC(=O)c3cc(F)cc(C(F)(F)F)c3)c21` (single isomer, unassigned) [Compound I-1601] returned an IC50 of no more than 0.1 µM.

Take `C[C@@H](c1cc(NC(=O)c2cc(F)cc(C(F)(F)F)c2)c2c(c1)C(=O)N[C@@H]2c1cc(F)ccc1Cl)S(C)(=O)=O` (single isomer, unassigned) [Compound I-1640]: the IC50 fell in the range of 1 to 10 µM.

In the case of `C[C@@H](c1cc(NC(=O)c2cc(F)cc(C(F)(F)F)c2)c2c(c1)C(=O)N[C@H]2c1cc(F)ccc1Cl)S(C)(=O)=O` (single isomer, unassigned) [Compound I-1641], the IC50 was no more than 0.1 µM.

In turn, `C[C@H](c1cc(NC(=O)c2cc(F)cc(C(F)(F)F)c2)c2c(c1)C(=O)N[C@H]2c1cc(F)ccc1Cl)S(C)(=O)=O` (single isomer, unassigned) [Compound I-1642] showed an IC50 of no more than 0.1 µM.

`C[C@H](c1cc(NC(=O)c2cc(F)cc(C(F)(F)F)c2)c2c(c1)C(=O)N[C@@H]2c1cc(F)ccc1Cl)S(C)(=O)=O` (single isomer, unassigned) [Compound I-1643]: the half-maximal inhibitory concentration (IC50) was 1 to 10 µM.

As to `N#Cc1cc2ncnn2cc1-c1cc(NC(=O)c2cc(F)cc(C(F)(F)F)c2)c2c(c1)C(=O)N[C@@H]2c1cc(F)ccc1Cl` (single isomer, unassigned) [Compound I-1646], the half-inhibitory concentration (IC50) was no more than 0.1 µM.

In turn, `O=C1C[C@H](c2cc(NC(=O)c3cc(F)cc(C(F)(F)F)c3)c3c(c2)C(=O)N[C@H]3c2cc(F)ccc2Cl)CN1` (single isomer, unassigned) [Compound I-1709] had an IC50 of no more than 0.1 µM.

`O=C1C[C@@H](c2cc(NC(=O)c3cc(F)cc(C(F)(F)F)c3)c3c(c2)C(=O)N[C@H]3c2cc(F)ccc2Cl)CN1` (single isomer, unassigned) [Compound I-1710] came in with an IC50 of no more than 0.1 µM.

As to `O=C1C[C@H](c2cc(NC(=O)c3cc(F)cc(C(F)(F)F)c3)c3c(c2)C(=O)N[C@@H]3c2cc(F)ccc2Cl)CN1` (single isomer, unassigned) [Compound I-1711], the half-inhibitory concentration (IC50) lay within 1 to 10 µM.

`O=C1C[C@@H](c2cc(NC(=O)c3cc(F)cc(C(F)(F)F)c3)c3c(c2)C(=O)N[C@@H]3c2cc(F)ccc2Cl)CN1` (single isomer, unassigned) [Compound I-1712] displayed an IC50 of 1 to 10 µM.

Molecule `O=C(Nc1cc(-c2cnn(C(F)F)c2)cc2c1[C@@H](c1cc(F)ccc1Cl)NC2=O)c1cc(F)cc(C(F)(F)F)c1` (single isomer, unassigned) [Compound I-1739] registered an IC50 of 1 to 10 µM.

In the case of `[2H]C([2H])(c1cc(NC(=O)c2cc(F)cc(C(F)(F)F)c2)c2c(c1)C(=O)N[C@@H]2c1cc(F)ccc1Cl)S(C)(=O)=O` (single isomer, unassigned) [Compound I-1788], the half-maximal inhibitory concentration (IC50) lay within 0.1 to 0.5 µM.

`[2H]C([2H])(c1cc(NC(=O)c2cc(F)cc(C(F)(F)F)c2)c2c(c1)C(=O)N[C@H]2c1cc(F)ccc1Cl)S(C)(=O)=O` (single isomer, unassigned) [Compound I-1789] returned an IC50 of no more than 0.1 µM.

Turning to `O=C1NC(c2cc(F)ccc2Cl)c2c(NC(=O)N3C[C@H](O)[C@@H](C(F)(F)F)C3)cc(-c3ccc4ncnn4c3)cc21` (single isomer, unassigned) [Compound I-1902], the IC50 was 1 to 10 µM.

On to `O=C1N[C@H](c2cc(F)ccc2Cl)c2c1cc(-c1ccc3ncnn3c1)cc2S(=O)(=O)Cc1ccccc1` (single isomer, unassigned) [Compound I-1905], for which the 50% inhibitory concentration (IC50) lay in the range of 1 to 10 µM.

`O=C1N[C@@H](c2cc(F)ccc2Cl)c2c1cc(-c1ccc3ncnn3c1)cc2S(=O)(=O)Cc1ccccc1` (single isomer, unassigned) [Compound I-1906] yielded a half-inhibitory concentration (IC50) of 10 to 100 µM.

In turn, `C[C@H](C#N)n1cc(-c2cc(NC(=O)c3cc(F)cc(C(F)(F)F)c3)c3c(c2)C(=O)N[C@@H]3c2cc(F)ccc2Cl)cn1` (single isomer, unassigned) [Compound I-1915] yielded an IC50 of 1 to 10 µM.

For the molecule `C[C@H](C#N)n1cc(-c2cc(NC(=O)c3cc(F)cc(C(F)(F)F)c3)c3c(c2)C(=O)N[C@H]3c2cc(F)ccc2Cl)cn1` (single isomer, unassigned) [Compound I-1916], the IC50 is no more than 0.1 µM.

With `O=C1NC(c2cc(F)ccc2Cl)c2c(NC(=O)C3CCCN(CC(F)(F)F)C3)cc(-c3ccc4ncnn4c3)cc21` (single isomer, unassigned) [Compound I-1964], the half-inhibitory concentration (IC50) is 10 to 100 µM.

`O=C(Nc1cccc2c1C([C@@H]1CCCC[C@H]1O)NC2=O)c1cc(F)cc(C(F)(F)F)c1` (single isomer, unassigned) [Compound I-1971] displayed an IC50 of 10 to 100 µM.

`O=C(Nc1cccc2c1C([C@H]1CCCC[C@@H]1O)NC2=O)c1cc(F)cc(C(F)(F)F)c1` (single isomer, unassigned) [Compound I-1972]: the IC50 was 10 to 100 µM.

For the molecule `O=C1NC(c2cc(F)ccc2Cl)c2c(NC(=O)[C@@H]3CC[C@H](O)C3)cc(Br)cc21` (single isomer, unassigned) [Compound I-1975], the IC50 was 10 to 100 µM.

As to `O=C1NC(c2cc(F)ccc2Cl)c2c(NC(=O)[C@@H]3CC[C@@H](O)C3)cc(Br)cc21` (single isomer, unassigned) [Compound I-1976], the half-maximal inhibitory concentration (IC50) lay in the range of 10 to 100 µM.

Regarding `O=C1NC(c2cc(F)ccc2Cl)c2c(NC(=O)N3C[C@@H](C(F)(F)F)[C@@H](O)C3)cc(-c3ccc4ncnn4c3)cc21` (single isomer, unassigned) [Compound I-1978], the IC50 was 1 to 10 µM.

`C[C@H](C#N)Oc1cc(NC(=O)c2cc(F)cc(C(F)(F)F)c2)c2c(c1)C(=O)N[C@@H]2c1cc(F)ccc1Cl` (single isomer, unassigned) [Compound I-2005]: the half-inhibitory concentration (IC50) is 1 to 10 µM.

As to `C[C@H](C#N)Oc1cc(NC(=O)c2cc(F)cc(C(F)(F)F)c2)c2c(c1)C(=O)N[C@H]2c1cc(F)ccc1Cl` (single isomer, unassigned) [Compound I-2006], the IC50 was no more than 0.1 µM.

`C[C@@H](C#N)Oc1cc(NC(=O)c2cc(F)cc(C(F)(F)F)c2)c2c(c1)C(=O)N[C@@H]2c1cc(F)ccc1Cl` (single isomer, unassigned) [Compound I-2007] showed an IC50 of 1 to 10 µM.

One may read the IC50 as the concentration that gives 50% inhibition. Read a high IC50 as weaker potency.
